Patent publication US20180265515A1 (Genentech, Inc., priority 2015, published 2018)

How the values were obtained:
[1] = target: T1, isolated recombinant JAK2 kinase domain (Homo sapiens, UniProt O60674); assay: JAK2 enzyme assay (Caliper LabChip, Ki); type: biochemical; conditions: 25 μM ATP
T1 construct: The activity of the isolated recombinant JAK1 and JAK2 kinase domain was measured
Outline: (§1)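 Phosphorylation of a fluorescent JAK3-derived dodecapeptide by recombinant human JAK1 or JAK2 catalytic domain is monitored through electrophoretic product/substrate separation. Incubation lasts 30 minutes at 22° C; EDTA quench. Morrison-model Ki values account for ATP competition.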

[2] = target: T2, isolated recombinant JAK1 kinase domain (Homo sapiens, UniProt P23458); assay: JAK1 enzyme assay (Caliper LabChip, Ki); type: biochemical; conditions: recombinant JAK1 kinase domain, 25 μM ATP
T2 construct: The activity of the isolated recombinant JAK1 and JAK2 kinase domain was measured
T2 sequence (P23458 875-1153 limits assumed): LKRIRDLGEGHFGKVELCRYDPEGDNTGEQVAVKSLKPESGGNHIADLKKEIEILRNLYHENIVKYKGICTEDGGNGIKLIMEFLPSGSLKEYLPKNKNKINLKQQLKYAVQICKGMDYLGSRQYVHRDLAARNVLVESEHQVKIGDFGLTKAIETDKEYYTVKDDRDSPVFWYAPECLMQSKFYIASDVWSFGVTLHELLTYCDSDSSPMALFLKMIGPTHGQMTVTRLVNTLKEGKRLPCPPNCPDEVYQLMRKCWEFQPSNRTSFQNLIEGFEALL
Outline: as §1

[3] = test system: JAK1-dependent STAT6 phosphorylation downstream of IL-13 stimulation in BEAS-2B human bronchial epithelial cells; assay: JAK1 pathway assay in BEAS-2B cells (IL-13 stimulated STAT6 phosphorylation, MSD); type: cell-based; conditions: read-out: P-STAT6 BEAS2B + IL13 IC50
Outline: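 BEAS-2B human bronchial epithelial cells, plated the day before in complete growth medium, were preincubated with compound for 1 hr at 37° C (0.2% DMSO final), then stimulated with IL-13 at its EC90 for 15 min. STAT6 phosphorylation in lysates was read by MSD; EC50 was taken as 50% inhibition versus DMSO control.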

T1 sequence (O60674 849-1124 limits assumed): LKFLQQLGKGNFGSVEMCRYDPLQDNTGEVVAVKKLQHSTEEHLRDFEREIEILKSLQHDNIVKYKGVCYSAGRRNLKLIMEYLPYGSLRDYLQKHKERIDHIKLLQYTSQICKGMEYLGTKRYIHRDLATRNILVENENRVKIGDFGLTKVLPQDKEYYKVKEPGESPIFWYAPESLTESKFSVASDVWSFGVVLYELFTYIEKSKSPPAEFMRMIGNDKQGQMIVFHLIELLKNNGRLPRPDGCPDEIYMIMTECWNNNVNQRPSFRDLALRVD

| SMILES | Ki [1] [nM] | Ki [2] [nM] | IC50 [3] [nM] |
| --- | --- | --- | --- |
| CSc1ccc(OC(F)F)c(-c2nn(CC(=O)N3CCN(C4CCOCC4)CC3)cc2NC(=O)c2cnn3cccnc23)c1 [Example 53, N-[3-[2-(difluoromethoxy)-5-methylsulfanyl-phenyl]-1-[2-oxo-2-(4-tetrahydropyran-4-ylpiperazin-1-yl)ethyl]pyrazol-4-yl]pyrazolo[1,5-a]pyrimidine-3-carboxamide] | 0.32 | 0.27 | 12 |
| CSc1ccc(OC(F)F)c(-c2nn(C)cc2NC(=O)c2cnn3cccnc23)c1 [Example 91, N-[3-[2-(difluoromethoxy)-5-methylsulfanyl-phenyl]-1-methyl-pyrazol-4-yl]pyrazolo[1,5-a]pyrimidine-3-carboxamide] | 0.071 | 0.13 | 3.9 |
| CSc1ccc(OC(F)F)c(-c2nn(CC(=O)N3CCN([C@H]4CC[C@@H](C#N)CC4)CC3)cc2NC(=O)c2cnn3cccnc23)c1 [Example 99, N-[1-[2-[4-(4-cyanocyclohexyl)piperazin-1-yl]-2-oxo-ethyl]-3-[2-(difluoromethoxy)-5-methylsulfanyl-phenyl]pyrazol-4-yl]pyrazolo[1,5-a]pyrimidine-3-carboxamide] | 0.56 | 0.38 | 9.5 |
| O=C(Nc1cn(CC(=O)N2CCC(N3CCOCC3)CC2)nc1-c1cc(SC2COC2)ccc1OC(F)F)c1cnn2cccnc12 [Example 182, N-[3-[2-(difluoromethoxy)-5-(oxetan-3-ylsulfanyl)phenyl]-1-[2-(4-morpholino-1-piperidyl)-2-oxo-ethyl]pyrazol-4-yl]pyrazolo[1,5-a]pyrimidine-3-carboxamide] | 1.9 | 0.92 | 91 |
| CSc1ccc(OC(F)F)c(-c2nn(CC(=O)N3CCC(N4CC5CC(C4)O5)CC3)cc2NC(=O)c2cnn3cccnc23)c1 [Example 75, N-[3-[2-(difluoromethoxy)-5-methylsulfanyl-phenyl]-1-[2-[4-(6-oxa-3-azabicyclo[3.1.1]heptan-3-yl)-1-piperidyl]-2-oxo-ethyl]pyrazol-4-yl]pyrazolo[1,5-a]pyrimidine-3-carboxamide] | 0.38 | 0.28 | 12 |
| CC(C)Sc1ccc(OC(F)F)c(-c2nn(CC(=O)N3CCN(CCO)CC3)cc2NC(=O)c2cnn3cccnc23)c1 [Example 131, N-[3-[2-(difluoromethoxy)-5-isopropylsulfanyl-phenyl]-1-[2-[4-(2-hydroxyethyl)piperazin-1-yl]-2-oxo-ethyl]pyrazol-4-yl]pyrazolo[1,5-a]pyrimidine-3-carboxamide] | 0.8 | 0.41 | 30 |
| CSc1ccc(OC(F)F)c(-c2nn(CC(=O)N3CCN(CC4CCOCC4)CC3)cc2NC(=O)c2cnn3cccnc23)c1 [Example 65, N-[3-[2-(difluoromethoxy)-5-methylsulfanyl-phenyl]-1-[2-oxo-2-[4-(tetrahydropyran-4-ylmethyl)piperazin-1-yl]ethyl]pyrazol-4-yl]pyrazolo[1,5-a]pyrimidine-3-carboxamide] | 0.49 | 0.41 | 15 |
| CC(C)Sc1ccc(OC(F)F)c(-c2nn(CC(=O)N3CCC(N4CCOCC4)CC3)cc2NC(=O)c2cnn3cccnc23)c1 [Example 102, N-[3-[2-(difluoromethoxy)-5-isopropylsulfanyl-phenyl]-1-[2-(4-morpholino-1-piperidyl)-2-oxo-ethyl]pyrazol-4-yl]pyrazolo[1,5-a]pyrimidine-3-carboxamide] | 0.85 | 0.38 | 20 |
| CSc1ccc(OC(F)F)c(-c2nn(CC(=O)N3CCC(N4CC(C#N)C4)CC3)cc2NC(=O)c2cnn3cccnc23)c1 [Example 59, N-[1-[2-[4-(3-cyanoazetidin-1-yl)-1-piperidyl]-2-oxo-ethyl]-3-[2-(difluoromethoxy)-5-methylsulfanyl-phenyl]pyrazol-4-yl]pyrazolo[1,5-a]pyrimidine-3-carboxamide] | 0.34 | 0.2 | 15 |
| CSc1ccc(OC(F)F)c(-c2nn(CC(=O)N3CCC(N(C)[C@@H]4CCOC4)CC3)cc2NC(=O)c2cnn3cccnc23)c1 [Example 60, N-[3-[2-(difluoromethoxy)-5-methylsulfanyl-phenyl]-1-[2-[4-[methyl-[(3R)-tetrahydrofuran-3-yl]amino]-1-piperidyl]-2-oxo-ethyl]pyrazol-4-yl]pyrazolo[1,5-a]pyrimidine-3-carboxamide] | 0.52 | 0.31 | 14 |
| CSc1ccc(OC(F)F)c(-c2nn(CC(=O)N3CCC(CN4CCC[C@H]4C(=O)N(C)C)CC3)cc2NC(=O)c2cnn3cccnc23)c1 [Example 43, N-[3-[2-(difluoromethoxy)-5-methylsulfanyl-phenyl]-1-[2-[4-[[(2S)-2-(dimethylcarbamoyl)pyrrolidin-1-yl]methyl]-1-piperidyl]-2-oxo-ethyl]pyrazol-4-yl]pyrazolo[1,5-a]pyrimidine-3-carboxamide] | 0.87 | 0.35 | 76 |
| CSc1ccc(OC(F)F)c(-c2nn(CC(=O)N3CCC(N4CCC[C@H]4C(=O)N(C)C)CC3)cc2NC(=O)c2cnn3cccnc23)c1 [Example 47, N-[3-[2-(difluoromethoxy)-5-methylsulfanyl-phenyl]-1-[2-[4-[(2S)-2-(dimethylcarbamoyl)pyrrolidin-1-yl]-1-piperidyl]-2-oxo-ethyl]pyrazol-4-yl]pyrazolo[1,5-a]pyrimidine-3-carboxamide] | 1.3 | 0.52 | 350 |
| CC(C)Sc1ccc(OC(F)F)c(-c2nn(CC(=O)N3CCC(N4CCO[C@H](CO)C4)CC3)cc2NC(=O)c2cnn3cccnc23)c1 [Example 149, N-[3-[2-(difluoromethoxy)-5-isopropylsulfanyl-phenyl]-1-[2-[4-[(2S)-2-(hydroxymethyl)morpholin-4-yl]-1-piperidyl]-2-oxo-ethyl]pyrazol-4-yl]pyrazolo[1,5-a]pyrimidine-3-carboxamide] | 1.2 | 0.52 | 50 |
| CSc1ccc(OC(F)F)c(-c2nn(CC(=O)N3CCC(OCC(=O)N4CCN(C)CC4)CC3)cc2NC(=O)c2cnn3cccnc23)c1 [Example 71, N-(3-(2-(difluoromethoxy)-5-(methylthio)phenyl)-1-(2-(4-(2-(4-methylpiperazin-1-yl)-2-oxoethoxy)piperidin-1-yl)-2-oxoethyl)-1H-pyrazol-4-yl)pyrazolo[1,5-a]pyrimidine-3-carboxamide] | 1.1 | 0.59 | 83 |
| CSc1ccc(OC(F)F)c(-c2nn(CC(=O)N3CCC(N4CCC[C@@H](C#N)C4)CC3)cc2NC(=O)c2cnn3cccnc23)c1 [Example 58, N-[1-(2-[4-[(3R)-3-cyanopiperidin-1-yl]piperidin-1-yl]-2-oxoethyl)-3-[2-(difluoromethoxy)-5-(methylsulfanyl)phenyl]-1H-pyrazol-4-yl]pyrazolo[1,5-a]pyrimidine-3-carboxamide] | 0.33 | 0.2 | 13 |
| CC(C)Sc1ccc(OC(F)F)c(-c2nn(CC(=O)N3CCN(CC4(C)COC4)CC3)cc2NC(=O)c2cnn3cccnc23)c1 [Example 127, N-[3-[2-(difluoromethoxy)-5-isopropylsulfanyl-phenyl]-1-[2-[4-[(3-methyloxetan-3-yl)methyl]piperazin-1-yl]-2-oxo-ethyl]pyrazol-4-yl]pyrazolo[1,5-a]pyrimidine-3-carboxamide] | 0.97 | 0.48 | 35 |
| CC(C)Sc1ccc(OC(F)F)c(-c2nn(CC(=O)N3CCN(CCCO)CC3)cc2NC(=O)c2cnn3cccnc23)c1 [Example 126, N-[3-[2-(difluoromethoxy)-5-isopropylsulfanyl-phenyl]-1-[2-[4-(3-hydroxypropyl)piperazin-1-yl]-2-oxo-ethyl]pyrazol-4-yl]pyrazolo[1,5-a]pyrimidine-3-carboxamide] | 0.84 | 0.37 | 43 |
| CC(C)Sc1ccc(OC(F)F)c(-c2nn(CC(=O)N3CCC(NCC(C)(C)C#N)CC3)cc2NC(=O)c2cnn3cccnc23)c1 [Example 120, N-[1-[2-[4-[(2-cyano-2-methyl-propyl)amino]-1-piperidyl]-2-oxo-ethyl]-3-[2-(difluoromethoxy)-5-isopropylsulfanyl-phenyl]pyrazol-4-yl]pyrazolo[1,5-a]pyrimidine-3-carboxamide] | 1.2 | 0.4 | 27 |
| COC(=O)N1CCN(CC2CCN(C(=O)Cn3cc(NC(=O)c4cnn5cccnc45)c(-c4cc(SC5CC5)ccc4OC(F)F)n3)CC2)CC1 [Example 173, methyl 4-[[1-[2-[3-[5-cyclopropylsulfanyl-2-(difluoromethoxy)phenyl]-4-(pyrazolo[1,5-a]pyrimidine-3-carbonylamino)pyrazol-1-yl]acetyl]-4-piperidyl]methyl]piperazine-1-carboxylate] | 0.83 | 0.33 | 17 |
| CSc1ccc(OC(F)F)c(-c2nn(CC(=O)N3CCC(CN4CCN(CC(=O)N(C)C)C[C@H]4C)CC3)cc2NC(=O)c2cnn3cccnc23)c1 [Example 87, N-[3-[2-(difluoromethoxy)-5-methylsulfanyl-phenyl]-1-[2-[4-[[(2R)-4-[2-(dimethylamino)-2-oxo-ethyl]-2-methyl-piperazin-1-yl]methyl]-1-piperidyl]-2-oxo-ethyl]pyrazol-4-yl]pyrazolo[1,5-a]pyrimidine-3-carboxamide] | 0.61 | 0.39 | 35 |
